Assays:
Format in all cases: cell-based, Human
HCT116 p53+/+ cells = assay: Analysis of apoptosis by flow cytometry (Annexin V-FITC/PI); settings: 48 hours, control 2.53%
Method: (§1) Annexin V-FITC/PI double staining method was employed for the apoptosis assay in HCT116 p53+/+ and HCT116 p53−/− cells (1×10^6/well, 6-well plate). After 48 hours of treatment with APTM, cells were harvested in 15 ml centrifuge tubes by gentle scraping followed by centrifugation at 300×g for 5 minutes at room temperature. Cell suspension was washed two times with cold PBS by centrifugation at 300×g for 5 minutes at room temperature. Then cells were harvested, washed twice with cold PBS, and resuspended in 1×binding buffer (100 μL). Cells were transferred into a 1.5 ml micro-centrifuge tubes and stained with propidium iodide (5 μL) and FITC annexin V (5 μL). Cells were briefly vortexed after incubation for 15 minutes in the dark at room temperature. Then cells were filtered and analyzed by flow cytometry. Total apoptotic cells (FITC to Annexin V positive) were counted.

HCT116 p53−/− cells [1] = assay: In vitro cell proliferation assay (SRB assay) on HCT116 p53-/- cells
Method: (§2) Human colon cancer cell line HCT116 (p53+/+) was purchased from ATCC and the p53−/− HCT116 cell line was provided by Bert Vogelstein, Johns Hopkins University. Cells were cultured in McCoy's 5A medium supplemented with 10% FBS, 100 units/ml penicillin G, and 100 μg/ml streptomycin in humidified atmosphere with 5% CO2. Cells were passaged twice weekly to maintain logarithmic growth.
(§3) The anti-proliferative effects of APTM on cancer cell lines were assessed by sulforhodamine B (SRB) colorimetric assay. Cells were seeded in 96-well plates at densities of 5,000 cells per well and cultured overnight. Then cells were susceptible to APTM at indicated concentrations and cultured for indicated times. After incubation, attached cells were fixed with 50 μL cold 50% (w/v) trichloroacetic acid (TCA) for 1 hour at 4° C., washed 5 times with slow-running tap water, and stained with 100 μL 0.4% (w/v) SRB. Optical density at 515 nm (OD515) was measured using a microplate reader (Molecular Devices) after mixing the protein-bound dye with 200 μL 10 mM Tris base solution (pH 10.5). The relative cell growth rate was determined with the following equation: Relative Growth (%)=OD (treated)/OD (control). The IC50 value was defined as the concentration required for a 50% reduction in cell growth.

[2] = tested on: Bax and cPARP expression in HCT116 p53−/− cells; assay: Western blotting of apoptosis markers, p53-deficient cells; settings: different APTM concentrations
Method: (§4) HCT116 cells were treated with APTM at indicated concentrations for 48 hours, and harvested via trypsinization. Protein samples were prepared by scratching cells in RIPA buffer containing protease inhibitor cocktail (Roche) and diluted in SDS-PAGE protein sample buffer. Samples were heated for 5 minutes at 100° C. Protein concentrations were measured using Direct Detect® Infrared Spectrometer (Millipore, USA) according to the manufacturer's instructions. Equal amount of proteins were loaded on 4-20% SDS-polyacrylamide (PAGE) gel. After electrophoresis, gels were transferred to a PVDF membrane (Millipore) and incubated with primary antibodies overnight at 4° C. The membranes were then washed with TBST and incubated with horseradish peroxidase-conjugated anti-rabbit or anti-mouse antibodies (1:10000, Santa Cruz, Calif., USA) for 45 min at room temperature. Proteins were visualized with SuperSignal West Dura Extended Duration Substrate or SuperSignal West Pico Chemiluminescent Substrate (Thermo Scientific) using the Amersham Imager 600 western blotting system.

HCT116 p53−/− cells [3] = assay: Assessment of cell morphological changes (Hoechst 33258 staining), p53-deficient cells; settings: highest concentration of 30 μM, 48 hours
Method: (§5) Cells were plated in 6-well plates (200,000 cells/well) and treated with indicated concentrations of APTM. After incubation for 48 hours, cells were collected, washed with PBS and stained with Hoechst 33258 ([…]) in buffered formalin solution containing 5.6% NP-40. Apoptotic and living cells were viewed through DAPI filter of fluorescence inverted microscope (Leica DM2500 Fluorescence Microscope) at 400× magnifications.

[4] = tested on: p53/Bax/cPARP signaling axis in HCT116 cells; assay: Western blotting of apoptosis markers p53, Bax, cPARP; settings: 48 hours
Method: as §4

HCT116 p53−/− cells [5] = assay: Analysis of apoptosis by flow cytometry (Annexin V-FITC/PI), p53-deficient cells; settings: 48 hours
Method: as §1

HCT116 cells [6] = assay: Assessment of cell morphological changes (Hoechst 33258 staining); settings: HCT116 cells, 3, 10 and 30 μM, 48 hours
Method: as §5

HCT116 cells [7] = assay: Analysis of cell cycle by flow cytometry (PI staining); settings: 48 hours
Method: Cell cycle distribution was determined by staining DNA with propidium iodide (PI). Briefly, 1.0×10^6 cells were incubated with or without APTM for 48 hours. Cells were washed with cold PBS and fixed in 70% ethanol at −20° C. for 2 hours. After washing with PBS, cells were stained with cold PI solution (20 μg/ml PI and 200 μg/mI RNase in PBS) for 30 minutes at room temperature in the dark. The percentage of cells in different phases of the cell cycle was determined by flow cytometer (BD Bioscience) and analyzed using FlowJo software.

HCT116 cells [8] = assay: Colony formation assay; settings: 8 days
Method: HCT116 cells were plated at 3,000 cells/well in six-well plates and cultured with indicated concentrations of APTM for 8 days. Cells were stained with 0.2% (w/v) crystal violet in buffered formalin for 20 minutes, and colonies were then photographed and quantified as previously described.

HCT116 (p53+/+) cells = assay: In vitro cell proliferation assay (SRB assay) on HCT116 cells; settings: for relative growth rate: 10 μM APTM, percentage of control
Method: as §2, §3

resistance of p53 deficient cells versus HCT116 p53+/+ cells (IC50 ratio) (HCT116 p53−/− cells [1]; HCT116 p53−/− vs HCT116 p53+/+): more than 5 fold
IC50 (HCT116 p53−/− cells [1]; Homo sapiens, HCT-116, HCT116 p53−/− cells, 33.3 μM highest concentration tested, read-out: IC50 value (50% reduction in cell growth)): > 33.3 µM
IC50 (HCT116 (p53+/+) cells; Homo sapiens, HCT-116, 48 hours, SRB assay, read-out: IC50 value (50% reduction in cell growth)): 6.57 µM
Compound: Cc1cccc(C)c1Nc1sc(C(=O)c2ccc(F)cc2)c(N)c1S(=O)(=O)c1ccccc1 [APTM, [3-Amino-5-[(2,6-dimethylphenyl)amino]-4-(phenylsulfonyl)-2-thienyl](4-fluorophenyl)methanone]
percentage of apoptotic cells (annexin V positive) (HCT116 p53+/+ cells; 3 μM): 7.67%
percentage of apoptotic cells (annexin V positive) (HCT116 p53+/+ cells; 10 μM): 20.86%
percentage of apoptotic cells (annexin V positive) (HCT116 p53+/+ cells; 30 μM): 43.7%
Bax and cPARP expression [2]: blunted
nuclear staining / apoptotic morphological changes (Hoechst staining) (HCT116 p53−/− cells [3]): reserved normal nuclear staining
Bax level [4]: induced
cleaved nuclear poly(ADP-ribose) polymerase (cPARP) level [4]: concentration-dependently induction
p53 protein level [4]: substantially induced
APTM induced apoptosis (annexin V-FITC/PI flow cytometry) (HCT116 p53−/− cells [5]): resistant
apoptotic morphological changes (Hoechst staining) (HCT116 cells [6]): typical morphological characteristics of apoptosis
sub-G0/G1 fraction of cells (HCT116 cells [7]; concentration-dependent): increased
proportions of cells in G0/G1, S and G2/M phases (HCT116 cells [7]; different concentrations): almost unchanged
Colony formation ability (HCT116 cells [8]; 3.0 μM): significantly decreased
Colony formation ability (HCT116 cells [8]; 10.0 μM): almost vanished
relative growth rate (HCT116 (p53+/+) cells; 24 hours): 76.36%
relative growth rate (HCT116 (p53+/+) cells; 72 hours): 24.57%

— US20190183856A1, “METHODS FOR TREATING CANCER” (Macau University of Science and Technology, priority 2017, published 2019)
